pIC50: −log10 of the molar value. Activity calls are given as the source filed them. The calls are words filed in the database; no cut-off is given here.
Legend:
[1] = Cytotoxicity against human Huh-7/3-1 cells assessed as reduction in cell viability; assay type: cell-based
[2] = tested on: Hepatitis C virus; assay: Antiviral activity against Hepatitis C virus (isolate Con1) genotype 1b in human Huh-7/3-1 cells assessed as inhibition of HCV replication; assay type: functional, organism-based, Hepacivirus hominis; conditions: isolate Con1, Huh-7
[3] = Cytotoxicity against human Huh-7/3-1 cells assessed as cell viability at 0.1 to 11 uM after 72 hrs by WST-8 assay; assay type: cell-based
[4] = tested on: Hepatitis C virus; assay: Antiviral activity against Hepatitis C virus (isolate Con1) genotype 1b in human Huh-7/3-1 cells assessed as reduction in NS5B protein level in golgi-derived detergent-resistant membrane at 1 uM after 72 hrs by immunoblotting analysis; assay type: functional, organism-based; conditions: Hepacivirus hominis
[5] = tested on: Hepatitis C virus; assay: Binding affinity at HCV NS5B at 1 nmol by ELISA; conditions: Hepacivirus hominis; Con1
[6] = tested on: Hepatitis C virus; assay: microbe, parasite or virus in culture; conditions: isolate Con1, Huh-7, 72 h
Description: Antiviral activity against Hepatitis C virus (isolate Con1) genotype 1b in human Huh-7/3-1 cells assessed as inhibition of HCV replication after 72 hrs by luciferase assay

[7] = tested on: Hepatitis C virus; assay: Antiviral activity against Hepatitis C virus (isolate Con1) genotype 1b in human Huh-7/3-1 cells assessed as decrease in replicon RNA at 0.01 to 1 uM after 72 hrs by Northern blot analysis; assay type: functional, organism-based; conditions: Hepacivirus hominis
[8] = tested on: Hepatitis C virus; assay: Antiviral activity against Hepatitis C virus (isolate Con1) genotype 1b in human Huh-7/3-1 cells assessed as reduction in NS5A protein level at 100 nM by Western blot analysis; assay type: functional, organism-based; conditions: Hepacivirus hominis, TDE = time-dependent effect
[9] = tested on: Hepatitis C virus; assay: microbe, parasite or virus in culture; conditions: isolate Con1, Huh-7
Description: Antiviral activity against Hepatitis C virus (isolate Con1) genotype 1b in human Huh-7/3-1 cells assessed as inhibition of SPT activity in presence of 1 uM sphinganine

[10] = tested on: Hepatitis C virus; assay: Antiviral activity against Hepatitis C virus (isolate Con1) genotype 1b in human Huh-7/3-1 cells assessed as reduction in NS5A protein level in golgi-derived detergent-resistant membrane at 1 uM after 72 hrs by immunoblotting analysis; assay type: functional, organism-based; conditions: Hepacivirus hominis
[11] = Cytotoxicity against human Huh-7/3-1 cells assessed as cell viability at 0.1 to 100 uM after 72 hrs by Trypan Blue exclusion test; assay type: cell-based
[12] = tested on: Hepatitis C virus; assay: Antiviral activity against Hepatitis C virus (isolate Con1) genotype 1b in human Huh-7/3-1 cells assessed as reduction in NS5B protein level at 100 nM by Western blot analysis; assay type: functional, organism-based; conditions: Hepacivirus hominis, TDE = time-dependent effect
[13] = tested on: Hepatitis C virus; assay: Antiviral activity against Hepatitis C virus (isolate Con1) genotype 1b in human Huh-7/3-1 cells assessed as reduction in NS3 protein level at 100 nM by Western blot analysis; assay type: functional, organism-based; conditions: Hepacivirus hominis, TDE = time-dependent effect
[14] = Cytotoxicity against human Huh-7/3-1 cells assessed as cell viability at 0.1 to 100 uM after 72 hrs by WST-8 assay; assay type: cell-based
[15] = species: Homo sapiens; assay: Effect on Caveolin-2 localization in human Huh-7/3-1 replicon golgi-derived detergent-resistant membrane at 1 uM after 72 hrs by immunoblotting analysis; assay type: functional
[16] = tested on: Hepatitis C virus; assay: Antiviral activity against Hepatitis C virus (isolate Con1) genotype 1b in human Huh-7/3-1 cells assessed as reduction in NS3 protein level in golgi-derived detergent-resistant membrane at 1 uM after 72 hrs by immunoblotting analysis; assay type: functional, organism-based; conditions: Hepacivirus hominis
[17] = tested on: Hepatitis C virus; assay: Antiviral activity against Hepatitis C virus (isolate Con1) genotype 1b in human Huh-7/3-1 cells assessed as inhibition of HCV replication at 0.1 to 100 nM after 72 hrs by luciferase assay; assay type: functional, organism-based; conditions: Hepacivirus hominis
[18] = tested on: Hepatitis C virus; assay: Antiviral activity against Hepatitis C virus (isolate Con1) genotype 1b in human Huh-7/3-1 cells assessed as disappearance of NS3 protein from perinuclear region at 100 nM after 96 hrs by immunostaining; assay type: functional, organism-based; conditions: Hepacivirus hominis
[19] = tested on: Hepatitis C virus; assay: Antiviral activity against Hepatitis C virus (isolate Con1) genotype 1b in human Huh-7/3-1 cells assessed as reduction in NS3 protein level at 1 uM by Western blot analysis in presence of 5 uM C2-ceramide; assay type: functional, organism-based; conditions: Hepacivirus hominis
[20] = biological target: T1, Serine palmitoyltransferase 1 (Homo sapiens, UniProt O15269); assay: Inhibition of human recombinant SPT1 activity in LCB1 transfected human HEK293 cells; assay type: cell-based
T1 sequence (O15269 whole entry): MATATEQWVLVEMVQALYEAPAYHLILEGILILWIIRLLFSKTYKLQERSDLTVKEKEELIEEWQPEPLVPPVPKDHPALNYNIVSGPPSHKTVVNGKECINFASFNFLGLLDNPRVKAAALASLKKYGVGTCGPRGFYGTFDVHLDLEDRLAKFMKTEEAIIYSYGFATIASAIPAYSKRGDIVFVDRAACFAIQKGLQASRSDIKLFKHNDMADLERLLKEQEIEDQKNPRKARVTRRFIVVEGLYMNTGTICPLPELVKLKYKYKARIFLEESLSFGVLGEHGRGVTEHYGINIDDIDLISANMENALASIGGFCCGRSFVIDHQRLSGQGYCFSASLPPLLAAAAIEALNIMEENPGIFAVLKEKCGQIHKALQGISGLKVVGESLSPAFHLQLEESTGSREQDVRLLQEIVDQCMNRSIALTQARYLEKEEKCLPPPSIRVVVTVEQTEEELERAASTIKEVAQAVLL

[21] = tested on: Hepatitis C virus; assay: Relocation of NS5B in human Huh-7/3-1 Hepatitis C virus (isolate Con1) genotype 1b replicon cells using golgi-derived detergent-resistant membrane at 10 nM after 72 hrs by immunoblotting analysis; assay type: functional, organism-based; conditions: Hepacivirus hominis
[22] = Cytotoxicity against human Huh-7/3-1 cells assessed as cell cycle progression at 0.02 to 50 uM after 72 hrs by flow-cytometry; assay type: cell-based
[23] = tested on: Hepatitis C virus; assay: microbe, parasite or virus in culture; conditions: isolate Con1, Huh-7; remark: listed apart in the source
Description: Antiviral activity against Hepatitis C virus (isolate Con1) genotype 1b in human Huh-7/3-1 cells assessed as inhibition of SPT activity in presence of 3 uM sphinganine

[24] = tested on: Hepatitis C virus; assay: Antiviral activity against Hepatitis C virus (isolate Con1) genotype 1b in human Huh-7/3-1 cells assessed as reduction in NS3 protein level at 1 uM by Western blot analysis in presence of 1 uM C2-ceramide; assay type: functional, organism-based; conditions: Hepacivirus hominis

CCCCCCCCCCCCCCCC(=O)NC(CN1CCOCC1)C(O)c1ccccc1 (stereo not given)
Activity [1]: 5.3 µM | pIC50 [2]: 5.92

CCCCCCCCCCCC(=O)N[C@@H](CO)C[C@@H](O)c1ccccc1
Activity [3]: Non-toxic

CCCCCCC(=O)CCCCCC/C=C/C[C@@H](O)[C@H](O)[C@@](N)(CO)C(=O)O
Activity [4]: Active

CCCCCCCCCCCCCC/C=C/[C@@H](O)[C@H](CO[C@@H]1O[C@H](CO)[C@H](O)[C@H](O)[C@H]1O)NC(=O)CCCCCCCCCCCCCCCCC
Activity [5]: Active

CCCCCCCC(=O)CCCCCC/C=C/[C@H](C(=O)N[C@@H](Cc1ccc(OCC=C(C)C)cc1)C(=O)O)[C@@](O)(CC(=O)O)C(=O)O
pIC50 [6]: 8.70 | Activity [7]: Active | Activity [8]: tde | pIC50 [9]: 7.48 | Activity [10]: inactive | Activity [11]: Non-toxic | Activity [12]: tde | Activity [13]: tde | Activity [14]: > 50 µM | Activity [15]: inactive | Activity [16]: inactive | Activity [17]: Dose-dependent effect | Activity [18]: Active | Activity [19]: inactive | pIC50 [20]: 8.00 | Activity [4]: Active | Activity [21]: inactive | Activity [22]: Non-toxic | pIC50 [23]: < 6.00 | Activity [24]: inactive

From ChEMBL document CHEMBL1240304, “Host sphingolipid biosynthesis as a target for hepatitis C virus therapy” (Nat Chem Biol, 2005)
